The supplement of paper PMC10307832

How the values were obtained:
Test in all cases: relative viability (nuclei count vs DMSO), 5 days (fraction); higher = more cells survive
AZ628 + Crizotinib = compound: CC1=C(C=C(C=C1)NC(=O)C2=CC(=CC=C2)C(C)(C)C#N)NC3=CC4=C(C=C3)N=CN(C4=O)C [AZ628] + C[C@@H](Oc1cc(-c2cnn(C3CCNCC3)c2)cnc1N)c1c(Cl)ccc(F)c1Cl [Crizotinib] (partner 1 µM)
In short: (§1)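 Relative viability equals treated-well nuclei counts divided by vehicle-well nuclei counts. Counts came from 4× images of lung cancer cell lines grown in 1536-well plates for 5 days after pin-tool dosing on the day after seeding. Dosing used one drug alone or a fixed anchor-drug dose plus five library-drug doses (not always all listed) in √10 steps, and values are medians of duplicate plates.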

[1] = compound: C[As](C)SC[C@H](NC(=O)CC[C@H](N)C(=O)O)C(=O)NCC(=O)O [Darinaparsin] + CC(C)C[C@H](NC(=O)[C@H](Cc1ccccc1)NC(=O)c1cnccn1)B(O)O [Bortezomib] (partner 0.002 µM)
In short: as §1

QS11 + Phenformin = compound: C1CC2=C(C1)C=C(C=C2)OC3=NC(=C4C(=N3)N(C=N4)CC5=CC=C(C=C5)C6=CC=CC=C6)N[C@@H](CC7=CC=CC=C7)CO [QS11] + N=C(N)NC(=N)NCCc1ccccc1 [Phenformin] (partner 250 µM)
In short: as §1

QS11 + Palbociclib = compound: C1CC2=C(C1)C=C(C=C2)OC3=NC(=C4C(=N3)N(C=N4)CC5=CC=C(C=C5)C6=CC=CC=C6)N[C@@H](CC7=CC=CC=C7)CO [QS11] + CC(=O)c1c(C)c2cnc(Nc3ccc(N4CCNCC4)cn3)nc2n(C2CCCC2)c1=O [Palbociclib] (partner 0.5 µM)
In short: as §1

NCI-H322M gave a relative viability (AZ628 + Crizotinib; first compound 0.08 µM) of 0.819, a relative viability (AZ628 + Crizotinib; first compound 0.253 µM) of 1.04 and a relative viability (AZ628 + Crizotinib; first compound 0.8 µM) of 1.01. The relative viability (AZ628 + Crizotinib; first compound 2.53 µM) was 0.795, the relative viability (AZ628 + Crizotinib; first compound 8 µM) was 0.856 and the relative viability ([1]; first compound 0.08 µM) was 1.21. It also gave a relative viability ([1]; first compound 0.8 µM) of 1.3, a relative viability ([1]; first compound 2.53 µM) of 1.04 and a relative viability ([1]; first compound 8 µM) of 1.32. For the same cell line, the relative viability (QS11 + Phenformin; first compound 0.08 µM) was 0.784, the relative viability (QS11 + Phenformin; first compound 0.253 µM) was 0.824 and the relative viability (QS11 + Phenformin; first compound 0.8 µM) was 0.803. For the same cell line, the relative viability (QS11 + Phenformin; first compound 2.53 µM) was 0.877, the relative viability (QS11 + Phenformin; first compound 8 µM) was 1.06 and the relative viability (QS11 + Palbociclib; first compound 0.08 µM) was 0.516. The relative viability (QS11 + Palbociclib; first compound 0.253 µM) was 0.461, the relative viability (QS11 + Palbociclib; first compound 0.8 µM) was 0.468 and the relative viability (QS11 + Palbociclib; first compound 2.53 µM) was 0.517. The relative viability (QS11 + Palbociclib; first compound 8 µM) was 0.593.

NCI-H441 gave a relative viability (AZ628 + Crizotinib; first compound 0.08 µM) of 0.809, a relative viability (AZ628 + Crizotinib; first compound 0.253 µM) of 0.569 and a relative viability (AZ628 + Crizotinib; first compound 0.8 µM) of 0.541. It also gave a relative viability (AZ628 + Crizotinib; first compound 2.53 µM) of 0.694, a relative viability (AZ628 + Crizotinib; first compound 8 µM) of 0.78 and a relative viability ([1]; first compound 0.08 µM) of 0.611. The relative viability ([1]; first compound 0.8 µM) was 0.513, the relative viability ([1]; first compound 2.53 µM) was 0.636 and the relative viability ([1]; first compound 8 µM) was 0.447. It also gave a relative viability (QS11 + Phenformin; first compound 0.08 µM) of 0.861, a relative viability (QS11 + Phenformin; first compound 0.253 µM) of 0.958 and a relative viability (QS11 + Phenformin; first compound 0.8 µM) of 0.71. It also gave a relative viability (QS11 + Phenformin; first compound 2.53 µM) of 1.01, a relative viability (QS11 + Phenformin; first compound 8 µM) of 0.884 and a relative viability (QS11 + Palbociclib; first compound 0.08 µM) of 0.213. It also gave a relative viability (QS11 + Palbociclib; first compound 0.253 µM) of 0.244, a relative viability (QS11 + Palbociclib; first compound 0.8 µM) of 0.255 and a relative viability (QS11 + Palbociclib; first compound 2.53 µM) of 0.201. The relative viability (QS11 + Palbociclib; first compound 8 µM) was 0.227.

Cell Line NCI-H460 has a relative viability (AZ628 + Crizotinib; first compound 0.08 µM) of 1.03, a relative viability (AZ628 + Crizotinib; first compound 0.253 µM) of 0.92 and a relative viability (AZ628 + Crizotinib; first compound 0.8 µM) of 0.872. For the same cell line, the relative viability (AZ628 + Crizotinib; first compound 2.53 µM) was 0.7, the relative viability (AZ628 + Crizotinib; first compound 8 µM) was 0.38 and the relative viability ([1]; first compound 0.8 µM) was 1.11. For the same cell line, the relative viability ([1]; first compound 2.53 µM) was 0.703, the relative viability ([1]; first compound 8 µM) was 1.84 and the relative viability (QS11 + Phenformin; first compound 0.08 µM) was 0.556. The relative viability (QS11 + Phenformin; first compound 0.253 µM) was 0.498, the relative viability (QS11 + Phenformin; first compound 0.8 µM) was 0.477 and the relative viability (QS11 + Phenformin; first compound 2.53 µM) was 0.442. It also gave a relative viability (QS11 + Phenformin; first compound 8 µM) of 0.227, a relative viability (QS11 + Palbociclib; first compound 0.08 µM) of 0.426 and a relative viability (QS11 + Palbociclib; first compound 0.253 µM) of 0.093. The relative viability (QS11 + Palbociclib; first compound 0.8 µM) was 0.0461, the relative viability (QS11 + Palbociclib; first compound 2.53 µM) was 0.0817 and the relative viability (QS11 + Palbociclib; first compound 8 µM) was 0.0731.

With NCI-H520 the relative viability (AZ628 + Crizotinib; first compound 0.08 µM) was 0.707, the relative viability (AZ628 + Crizotinib; first compound 0.253 µM) was 0.788 and the relative viability (AZ628 + Crizotinib; first compound 0.8 µM) was 0.601. For the same cell line, the relative viability (AZ628 + Crizotinib; first compound 2.53 µM) was 0.833, the relative viability (AZ628 + Crizotinib; first compound 8 µM) was 0.576 and the relative viability ([1]; first compound 0.08 µM) was 0.765. For the same cell line, the relative viability ([1]; first compound 0.8 µM) was 0.491, the relative viability ([1]; first compound 2.53 µM) was 0.531 and the relative viability ([1]; first compound 8 µM) was 0.474. The relative viability (QS11 + Phenformin; first compound 0.08 µM) was 0.476, the relative viability (QS11 + Phenformin; first compound 0.253 µM) was 0.687 and the relative viability (QS11 + Phenformin; first compound 0.8 µM) was 0.607. The relative viability (QS11 + Phenformin; first compound 2.53 µM) was 0.489, the relative viability (QS11 + Phenformin; first compound 8 µM) was 0.574 and the relative viability (QS11 + Palbociclib; first compound 0.08 µM) was 0.211. It also gave a relative viability (QS11 + Palbociclib; first compound 0.253 µM) of 0.208, a relative viability (QS11 + Palbociclib; first compound 0.8 µM) of 0.268 and a relative viability (QS11 + Palbociclib; first compound 2.53 µM) of 0.208. The relative viability (QS11 + Palbociclib; first compound 8 µM) was 0.204.
